Measured values from paper PMC8837113, “Drug Repurposing of the Unithiol: Inhibition of Metallo-β-Lactamases for the Treatment of Carbapenem-Resistant Gram-Negative Bacterial Infections” (International Journal of Molecular Sciences, 2022).

Experiments:
[1] = biological target: T1, metallo-β-lactamase NDM-1 (Klebsiella pneumoniae, UniProt C7C422); assay: meropenem hydrolysis kinetics, Lineweaver–Burk (spectrophotometric, […] nm); assay type: biochemical
T1 construct: gene blaNDM-1; recombinant NDM-1, purified from the periplasmic fraction of E. coli BL21(DE3) (pET-NDM)

[2] = biological target: T2, metallo-β-lactamase VIM-2 (Pseudomonas aeruginosa, UniProt Q9K2N0); assay: kinetic inhibition assay in periplasmic fractions (Figure S1); disk diffusion and MIC support; assay type: cell-based
T2 construct: gene blaVIM-2; active mature VIM-2 in periplasmic fractions of P. aeruginosa strains B-730P/17 and B-2099/18

T1 sequence (C7C422 29-270 limits assumed): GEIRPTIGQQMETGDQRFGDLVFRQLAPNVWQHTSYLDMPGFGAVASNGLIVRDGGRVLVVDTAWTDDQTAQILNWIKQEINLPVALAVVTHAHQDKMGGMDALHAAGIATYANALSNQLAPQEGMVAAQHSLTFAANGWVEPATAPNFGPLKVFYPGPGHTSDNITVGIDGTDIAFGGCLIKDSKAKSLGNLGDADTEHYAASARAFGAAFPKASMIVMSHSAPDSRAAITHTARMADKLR

O=S(=O)(O)CC(S)CS (centres unmarked) [compound 2, 2,3-dimercaptopropane-1-sulfonate]
Ki [1]: 16.7 ± 1.2 µM | kinetic inhibition assay in periplasmic fractions (Figure S1); disk diffusion an [2]: A noticeable dose-dependent inhibitory effect of unithiol (Figure S1) was observed for the two strains studied
